This test concerns the target T1, Recombinant human renin (Homo sapiens, UniProt P00797).
T1 construct: isolate the active form (residues 67-406); made in house; host or cells: FreeStyle 293-F cells (transient expression of pcDNA3.1(+)/hREN)
T1 sequence (P00797 67-406): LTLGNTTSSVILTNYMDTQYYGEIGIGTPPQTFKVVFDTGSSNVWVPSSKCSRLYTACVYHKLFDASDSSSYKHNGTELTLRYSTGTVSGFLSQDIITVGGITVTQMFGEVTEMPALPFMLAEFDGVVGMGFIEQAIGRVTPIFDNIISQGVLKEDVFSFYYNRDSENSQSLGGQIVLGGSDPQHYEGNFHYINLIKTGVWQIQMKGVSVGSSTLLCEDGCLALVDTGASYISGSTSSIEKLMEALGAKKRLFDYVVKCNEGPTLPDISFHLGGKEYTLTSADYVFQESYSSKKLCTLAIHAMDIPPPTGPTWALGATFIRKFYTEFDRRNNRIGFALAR
Nature of the test: In vitro enzymatic activity assay of renin inhibitors (fluorogenic peptide substrate). In kind it is biochemical. To be noted: read-out: IC50 of Exemplified Compounds Against Renin. In short, it runs like this:
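Enzyme: recombinant human renin, 3 nM final, 10 min compound pre-incubation at 37 °C; buffer 50 mM Hepes pH 7.4 with 0.1 mg/mL BSA or extra 2% BSA; 5% DMSO.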
Regarding `COCCCn1c([C@@H]2CCCN(C(=O)[C@@H]3CN(C(=O)c4ccccc4C(=O)OC)C[C@H]3N)C2)nc2ccccc21` [Compound 424, methyl 2-((3S,4R)-3-amino-4-((R)-3-(1-(3-methoxypropyl)-1H-benzo[d]imidazol-2-yl)piperidine-1-carbonyl)pyrrolidine-1-carbonyl)benzoate], the IC50 – broadly, the point on the concentration scale where inhibition reaches its midpoint – is above 1000 nM. Turning to `COCCCn1c([C@@H]2CCCN(C(=O)[C@@H]3CN(S(=O)(=O)c4c(F)cccc4F)C[C@H]3N)C2)nc2ccccc21` [Compound 426, ((3R,4S)-4-amino-1-(2,6-difluorophenylsulfonyl)pyrrolidin-3-yl)((R)-3-(1-(3-methoxypropyl)-1H-benzo[d]imidazol-2-yl)piperidin-1-yl)methanone], the IC50 was in the range of 100 to 1000 nM. For `COCCCn1c([C@@H]2CCCN(C(=O)[C@@H]3CN(S(=O)(=O)c4ccccc4C#N)C[C@H]3N)C2)nc2ccccc21` [Compound 427, 2-((3S,4R)-3-amino-4-((R)-3-(1-(3-methoxypropyl)-1H-benzo[d]imidazol-2-yl)piperidine-1-carbonyl)pyrrolidin-1-ylsulfonyl)benzonitrile], the IC50 is above 1000 nM. The result for `COCCCn1c([C@@H]2CCCN(C(=O)[C@@H]3CN(S(=O)(=O)c4cccc(F)c4)C[C@H]3N)C2)nc2ccccc21` [Compound 428, ((3R,4S)-4-amino-1-(3-fluorophenylsulfonyl)pyrrolidin-3-yl)((R)-3-(1-(3-methoxypropyl)-1H-benzo[d]imidazol-2-yl)piperidin-1-yl)methanone] reads 100 to 1000 nM. For `COCCCn1c([C@@H]2CCCN(C(=O)[C@@H]3CN(S(=O)(=O)c4cccc(NC(C)=O)c4)C[C@H]3N)C2)nc2ccccc21` [Compound 429, N-(3-((3S,4R)-3-amino-4-((R)-3-(1-(3-methoxypropyl)-1H-benzo[d]imidazol-2-yl)piperidine-1-carbonyl)pyrrolidin-1-ylsulfonyl)phenyl)acetamide] the value was below 100 nM. With `COCCCn1c([C@@H]2CCCN(C(=O)[C@@H]3CN(S(=O)(=O)c4cccc(-c5ccnc(C)n5)c4)C[C@H]3N)C2)nc2ccccc21` [Compound 430, ((3R,4S)-4-amino-1-(3-(2-methylpyrimidin-4-yl)phenylsulfonyl)pyrrolidin-3-yl)((R)-3-(1-(3-methoxypropyl)-1H-benzo[d]imidazol-2-yl)piperidin-1-yl)methanone], the IC50 lay within 100 to 1000 nM. As to `COCCCn1c([C@@H]2CCCN(C(=O)[C@@H]3CN(S(=O)(=O)c4cccc(-c5nnc(C)o5)c4)C[C@H]3N)C2)nc2ccccc21` [Compound 431, ((3R,4S)-4-amino-1-(3-(5-methyl-1,3,4-oxadiazol-2-yl)phenylsulfonyl)pyrrolidin-3-yl)((R)-3-(1-(3-methoxypropyl)-1H-benzo[d]imidazol-2-yl)piperidin-1-yl)methanone], the IC50 was above 1000 nM. The result for `COCCCn1c([C@@H]2CCCN(C(=O)C[C@@H](N)COc3ccccc3C(=O)OC)C2)nc2ccccc21` [Compound 432, methyl 2-((R)-2-amino-4-((R)-3-(1-(3-methoxypropyl)-1H-benzo[d]imidazol-2-yl)piperidin-1-yl)-4-oxobutoxy)benzoate] reads above 1000 nM; that for `COCCCn1c([C@@H]2CCCN(C(=O)C[C@@H](N)COc3cccc(OC)c3)C2)nc2ccccc21` [Compound 433, (R)-3-amino-4-(3-methoxyphenoxy)-1-((R)-3-(1-(3-methoxypropyl)-1H-benzo[d]imidazol-2-yl)piperidin-1-yl)butan-l-one], above 1000 nM; that for `COCCCn1c([C@@H]2CCCN(C(=O)C[C@@H](N)COc3nc4ccccc4[nH]3)C2)nc2ccccc21` [Compound 434, (R)-4-(1H-benzo[d]imidazol-2-yloxy)-3-amino-1-((R)-3-(1-(3-methoxypropyl)-1H-benzo[d]imidazol-2-yl)piperidin-1-yl)butan-1-one], 100 to 1000 nM.

(Values after US8138168B1 (Takeda Pharmaceutical Company Limited, priority 2007, dated 2012).)
